Here are results for 15 molecules from patent US12667572B2, “Tricyclic compounds useful in the treatment of cancer, autoimmune and inflammatory disorders” (SCHRÖDINGER, INC., priority 2021, dated 2026).

The structures appear in SMILES notation.

The IC50 is the concentration at which inhibition is half-maximal.

In assay [1] the test system is IL10 secretion in OCI-LY10 cells. Description: Human IL10 secretion assay, Assay 1 (HTRF). It counts as cell-based. The following applies: 24 h incubation, read-out: IL-10 Secretion IC50 [nM] Assay 1. The method, then:
IL10 is one of the cytokines that are regulated via activation of NF-kB signaling. For example, in ABC-DLBCL cell lines, the activated NF-kB signaling leads to increased IL10 secretion. Inhibition of NF-kB signaling has been shown leading to decreased IL10 secretion.
Assay 1: OCI-LY10 cells were seeded in IMEM supplemented with 20% fetal bovine serum at 3×10^5 cells per well in 96-well round bottom plates (Corning 3799, Corning), treated with 100 nL of 3-fold serial compound dilutions, starting at 10 mM. The final vehicle concentration was 0.1% DMSO in all wells. After 24 h incubation, the cells were transferred to 96-PCR plates (Axygen: PCR-96-FLT-C) and centrifuged, then 16 μL of cell culture media was transferred to HTRF plates and IL10 levels were measured using human IL-10 Assay Kits (Cisbio) using HTRF format. The signals were transformed to percentage of remaining activity by using the high control (HC, median of signal from wells containing cells treated with DMSO) and low control (LC, median of signal from wells with no cells). IC50 values (nM) were determined using 4-parametric curve-fitting and Hill coefficient obtained using Graph Pad Prism (Graph Pad software, Inc, USA) with non-linear regression analysis.
A general note: TR-FRET usually uses a lanthanide donor and a delayed reading to cut background.

The target in assay [2] is T1, full-length MALT1 protein His-MALT1(1-824) (Homo sapiens, UniProt Q9UDY8).
T1 construct: full-length MALT1 protein His-MALT1(1-824); His (N); made in house; host or cells: baculovirus-infected insect cells
T1 sequence (Q9UDY8 1-824): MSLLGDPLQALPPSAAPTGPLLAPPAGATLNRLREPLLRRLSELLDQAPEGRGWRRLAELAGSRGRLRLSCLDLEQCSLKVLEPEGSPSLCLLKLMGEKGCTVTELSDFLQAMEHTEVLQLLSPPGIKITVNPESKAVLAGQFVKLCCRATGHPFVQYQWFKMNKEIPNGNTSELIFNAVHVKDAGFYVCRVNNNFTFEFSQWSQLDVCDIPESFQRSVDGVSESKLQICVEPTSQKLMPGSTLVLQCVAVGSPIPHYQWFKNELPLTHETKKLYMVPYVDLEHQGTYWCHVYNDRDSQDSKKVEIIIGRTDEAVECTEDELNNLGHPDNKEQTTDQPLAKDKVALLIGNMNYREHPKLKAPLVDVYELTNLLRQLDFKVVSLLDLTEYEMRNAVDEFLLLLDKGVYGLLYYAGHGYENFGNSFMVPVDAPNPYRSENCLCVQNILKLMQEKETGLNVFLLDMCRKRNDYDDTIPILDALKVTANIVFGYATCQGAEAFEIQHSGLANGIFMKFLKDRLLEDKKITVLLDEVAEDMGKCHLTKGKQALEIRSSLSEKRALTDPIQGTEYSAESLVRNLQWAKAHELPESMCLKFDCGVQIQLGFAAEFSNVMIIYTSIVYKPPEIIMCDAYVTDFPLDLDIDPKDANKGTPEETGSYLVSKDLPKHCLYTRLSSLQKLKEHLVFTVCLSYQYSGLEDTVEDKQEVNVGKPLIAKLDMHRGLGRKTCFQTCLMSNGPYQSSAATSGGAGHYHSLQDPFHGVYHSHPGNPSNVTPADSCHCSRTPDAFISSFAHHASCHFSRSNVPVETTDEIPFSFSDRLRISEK
Put plainly: MALT1 protease assay, Assay 1 (2 nM MALT1, Ac-LRSR-AMC substrate). It counts as biochemical. The conditions noted are these: 2 nM MALT1, 50 μM Ac-LRSR-AMC, 2 h pre-incubation, 8 hr incubation at RT. The method, then:
MALT1 protease activity was assessed in an in vitro assay using a tetrapeptide as substrate and full-length MALT1 protein His-MALT1(1-824) purified from baculovirus-infected insect cells. The tetrapeptide substrate is Ac-LRSR-AMC (SM Biochemicals) with Km measured at around 100 μM.
The final assay buffer includes 1 nM (Assay 2) or 2 nM (Assay 1) of MALT1 full-length protein, 50 μM Ac-LRSR-AMC substrate, 50 mM Tris pH 7.5, 600 mM Sodium Citrate, 1 mM DTT, 1 mM EDTA, and 0.05% BSA in 384-well plate format using black microtiter square well plates (Optiplate 384-F, Perkin Elmer).
Test compounds were dissolved in 100% DMSO at stock of 10 mM, with final DMSO concentration 0.1%. Test compounds were pre-incubated with MALT1 protein for 2 h at room temperature. Substrate was added after the pre-incubation and fluorescence signal was measured using Envision at excitation 355 nm and emission 460 nm after 8 hr incubation at RT. Increase in the assay signal was linear over this period and proportional with increase in the enzyme content.
The fluorescence units were transformed to percentage of remaining activity by using the high control (HC, median of fluorescence signal from wells containing MALT1 protein, substrate, and DMSO) and low control (LC, median of fluorescence signal from wells with substrate only) with the formula below: […]
IC50 and Hill coefficients were obtained using Graph Pad Prism (Graph Pad software, Inc, USA) with non-linear regression analysis.

With `CC1(C)CC(C(=O)Nc2cnc(-n3nccn3)c(Cl)c2)c2cnc3cc(Cl)nn3c21` (single isomer, unassigned) [Example 2, 2-chloro-N-(5-chloro-6-(2H-1,2,3-triazol-2-yl)pyridin-3-yl)-8,8-dimethyl-7,8-dihydro-6H-cyclopenta[e]pyrazolo[1,5-a]pyrimidine-6-carboxamide], the 50% inhibitory concentration (IC50) in assay [1] is 100 to 1000 nM; in assay [2], less than 10 nM.

In the case of `CC1(C)CC(C(=O)Nc2cnc(-n3nccn3)c(Cl)c2)c2cnc3cc(C#N)nn3c21` (single isomer, unassigned) [Example 4, N-(5-chloro-6-(2H-1,2,3-triazol-2-yl)pyridin-3-yl)-2-cyano-8,8-dimethyl-7,8-dihydro-6H-cyclopenta[e]pyrazolo[1,5-a]pyrimidine-6-carboxamide], the IC50 is 100 to 1000 nM in assay [1] and 10 to 100 nM in assay [2].

Regarding `Cc1cc2ncc3c(n2n1)C(C)(C)C[C@@H]3C(=O)Nc1cnc(-n2nccn2)c(Cl)c1` (single isomer, unassigned) [Example 6, N-(5-chloro-6-(2H-1,2,3-triazol-2-yl)pyridin-3-yl)-2,8,8-trimethyl-7,8-dihydro-6H-cyclopenta[e]pyrazolo[1,5-a]pyrimidine-6-carboxamide], the IC50 was 100 to 1000 nM in assay [1] and less than 10 nM in assay [2].

In the case of `CC1(C)CCC(C(=O)Nc2cnc(-n3nccn3)c(Cl)c2)c2cnc3cc(Cl)nn3c21` (single isomer, unassigned) [Example 9, 2-chloro-N-(5-chloro-6-(2H-1,2,3-triazol-2-yl)pyridin-3-yl)-9,9-dimethyl-6,7,8,9-tetrahydropyrazolo[1,5-a]quinazoline-6-carboxamide], the IC50 in assay [1] fell in the range of 100 to 1000 nM; in assay [2], 10 to 100 nM.

Regarding `Cn1ccc(-c2ncc(NC(=O)C3CC(C)(C)c4c3cnc3cc(Cl)nn43)cc2Cl)n1` (single isomer, unassigned) [Example 11, 2-chloro-N-(5-chloro-6-(1-methyl-1H-pyrazol-3-yl)pyridin-3-yl)-8,8-dimethyl-7,8-dihydro-6H-cyclopenta[e]pyrazolo[1,5-a]pyrimidine-6-carboxamide], the results for the IC50 in assay [1] and in assay [2] were 100 to 1000 nM and 10 to 100 nM, respectively.

`CC1(C)CC(C(=O)Nc2cnc(-n3cccn3)c(Cl)c2)c2cnc3cc(Cl)nn3c21` (single isomer, unassigned) [Example 13, 2-chloro-N-(5-chloro-6-(1H-pyrazol-1-yl)pyridin-3-yl)-8,8-dimethyl-7,8-dihydro-6H-cyclopenta[e]pyrazolo[1,5-a]pyrimidine-6-carboxamide]: the results for the IC50 in assay [1] and in assay [2] were 100 to 1000 nM and 10 to 100 nM, respectively.

For `CCc1cc2ncc3c(n2n1)C(C)(C)CC3C(=O)Nc1cnc(-n2nccn2)c(Cl)c1` (single isomer, unassigned) [Example 21, N-(5-chloro-6-(2H-1,2,3-triazol-2-yl)pyridin-3-yl)-2-ethyl-8,8-dimethyl-7,8-dihydro-6H-cyclopenta[e]pyrazolo[1,5-a]pyrimidine-6-carboxamide], the IC50 was no less than 1000 nM in assay [1] and 10 to 100 nM in assay [2].

In the case of `CC(C)(O)c1cnn(-c2ncc(NC(=O)C3CC(C)(C)c4c3cnc3cc(Cl)nn43)cc2Cl)n1` (single isomer, unassigned) [Example 23, 2-chloro-N-(5-chloro-6-(4-(2-hydroxypropan-2-yl)-2H-1,2,3-triazol-2-yl)pyridin-3-yl)-8,8-dimethyl-7,8-dihydro-6H-cyclopenta[e]pyrazolo[1,5-a]pyrimidine-6-carboxamide], the IC50 in assay [1] was 100 to 1000 nM; in assay [2], less than 10 nM.

With `CC1(C)CC(C(=O)Nc2cnc(-n3nccn3)c(Cl)c2)c2cnc3cc(C(F)F)nn3c21` (single isomer, unassigned) [Example 25, N-(5-chloro-6-(2H-1,2,3-triazol-2-yl)pyridin-3-yl)-2-(difluoromethyl)-8,8-dimethyl-7,8-dihydro-6H-cyclopenta[e]pyrazolo[1,5-a]pyrimidine-6-carboxamide], the IC50 in assay [1] is 100 to 1000 nM; in assay [2], 10 to 100 nM.

Take `CC1(C)C[C@H](C(=O)Nc2cnc([C@H]3CCCO3)c(Cl)c2)c2cnc3cc(Cl)nn3c21` (single isomer, unassigned) [Example 29, 2-chloro-N-(5-chloro-6-(tetrahydrofuran-2-yl)pyridin-3-yl)-8,8-dimethyl-7,8-dihydro-6H-cyclopenta[e]pyrazolo[1,5-a]pyrimidine-6-carboxamide]: the IC50 in assay [1] is 100 to 1000 nM; in assay [2], 10 to 100 nM.

For `CC1(C)CC(C(=O)Nc2cnc(-n3ncc(CO)n3)c(Cl)c2)c2cnc3cc(Cl)nn3c21` (single isomer, unassigned) [Example 31, 2-chloro-N-(5-chloro-6-(4-(hydroxymethyl)-2H-1,2,3-triazol-2-yl)pyridin-3-yl)-8,8-dimethyl-7,8-dihydro-6H-cyclopenta[e]pyrazolo[1,5-a]pyrimidine-6-carboxamide], the IC50 in assay [1] is 100 to 1000 nM; in assay [2], less than 10 nM.

`CC1(C)CC(C(=O)Nc2cnc(-n3nccn3)c(Cl)c2)c2cnc3cc(F)nn3c21` (single isomer, unassigned) [Example 33, N-(5-chloro-6-(2H-1,2,3-triazol-2-yl)pyridin-3-yl)-2-fluoro-8,8-dimethyl-7,8-dihydro-6H-cyclopenta[e]pyrazolo[1,5-a]pyrimidine-6-carboxamide]: the IC50 in assay [1] was 10 to 100 nM; in assay [2], less than 10 nM.

Regarding `Cn1cnc(-c2ncc(NC(=O)C3CC(C)(C)c4c3cnc3cc(Cl)nn43)cc2Cl)c1` (single isomer, unassigned) [Example 35, 2-chloro-N-(5-chloro-6-(1-methyl-1H-imidazol-4-yl)pyridin-3-yl)-8,8-dimethyl-7,8-dihydro-6H-cyclopenta[e]pyrazolo[1,5-a]pyrimidine-6-carboxamide], the IC50 was no less than 1000 nM in assay [1] and 10 to 100 nM in assay [2].

As to `C[C@@]1(C(F)(F)F)C[C@H](C(=O)Nc2cnc(-n3nccn3)c(Cl)c2)c2cnc3cc(Cl)nn3c21` (single isomer, unassigned) [Example 36, 2-chloro-N-(5-chloro-6-(2H-1,2,3-triazol-2-yl)pyridin-3-yl)-8-methyl-8-(trifluoromethyl)-7,8-dihydro-6H-cyclopenta[e]pyrazolo[1,5-a]pyrimidine-6-carboxamide], the IC50 in assay [1] is 100 to 1000 nM; in assay [2], less than 10 nM.

For the molecule `C[C@]1(C(F)(F)F)C[C@@H](C(=O)Nc2cnc(-n3nccn3)c(Cl)c2)c2cnc3cc(Cl)nn3c21` (single isomer, unassigned) [Example 37, 2-chloro-N-(5-chloro-6-(2H-1,2,3-triazol-2-yl)pyridin-3-yl)-8-methyl-8-(trifluoromethyl)-7,8-dihydro-6H-cyclopenta[e]pyrazolo[1,5-a]pyrimidine-6-carboxamide], the IC50 in assay [1] is no less than 1000 nM; in assay [2], 10 to 100 nM.
